Measurements published in patent publication US20220110919A1, “METHODS OF MODULATING LEUKOCYTES ACTIVATION AND THROMBOCYTE CLEARANCE WITH INHIBITORS OF SPECIFIC NEURAMINIDASE ISOENZYMES” (The Governors of the University of Alberta, priority 2018, published 2022).

Test system: reticulated platelets
Assay: Passive Antibody Transfer Model of ITP (immunothrombocytopenia)
Assay type: in vivo
Conditions: C57Bl/6NCrI mice, anti-CD41 antibody; daily intraperitoneal 30 μg/kg vs saline
Source text: The Passive Antibody Transfer Model of ITP has been extensively used to understand the progression of chronic ITP and to rapidly evaluate the efficacy of various therapeutics (Neschadim et al., 2015). The model is characterized by a rapid onset of the ITP and clear involvement of phagocytic monocytes in platelet destruction. In addition, it provides a possibility to use self-antigens relevant to the human condition. Depending on the type, quantity, and frequency of the administered antibody it is possible to vary the severity and the persistence of the induced ITP by fine-tuning the rate and the level of platelet decline whereas the repeated administration of the monoclonal antibody simulates chronic human IT.
Female 6-week old C57Bl/6NCrI mice and genetically-modified C57Bl/6NCrI mice with neu1 deficiency (Passive Antibody Transfer Model of ITP, Neschadim et al., 2015) received escalating daily doses (68 μg/kg on the 1st and 2d days, 102 μg/kg on the third day) of anti-CD41 anti-platelet monoclonal mouse antibody (clone MWReg30) by intraperitoneal injection. The reticulated platelets were measured daily for three days by flow cytometric analysis. Control mice (C57B16) received injections of saline. […]

`CCCCC(=O)NCC(O)C(O)C1OC(C(=O)O)=CC(O)[C@H]1NC(C)=O` (stereo partly drawn) [compound 50, 5-Acetamido-9-pentanamido-2,6-anhydro-3,5-dideoxy-D-glycero-D-galacto-non-2-enonic acid] was tested. Which platelet reduction rate did it give?
The platelet reduction rate was “lower platelet reduction rates”.
